No end group written: not given here.
Experiments:
[1] = system: hMrgprX1;Mrgpr-cluster∆−/− transgenic mouse; details: in vivo
human MrgprX1 (hMrgprX1) = human MrgprX1 (hMrgprX1) (Homo sapiens, UniProt Q96LB2); test: cell-based; format: cell-based
Chain of human MrgprX1 (hMrgprX1) (Q96LB2 whole entry, looked up): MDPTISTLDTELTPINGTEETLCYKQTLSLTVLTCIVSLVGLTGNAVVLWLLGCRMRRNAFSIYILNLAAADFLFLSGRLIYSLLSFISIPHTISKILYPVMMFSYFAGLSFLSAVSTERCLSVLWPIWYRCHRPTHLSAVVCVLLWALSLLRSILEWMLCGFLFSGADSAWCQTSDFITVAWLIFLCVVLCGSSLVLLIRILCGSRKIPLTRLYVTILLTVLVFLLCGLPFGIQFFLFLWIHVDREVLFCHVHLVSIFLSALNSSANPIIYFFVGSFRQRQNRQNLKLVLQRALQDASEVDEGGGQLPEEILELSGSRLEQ

Substance	Itch-related scratching after intradermal cheek injection of peptide [1]	Activation of hMrgprX1 (human MrgprX1 (hMrgprX1))	EC50 (human MrgprX1 (hMrgprX1)) [nM]	Potency in activating hMrgprX1 relative to CNF-Vc1 (human MrgprX1 (hMrgprX1))
HSGILLAWSGPRNRFVRI-NH2 [CNF-Tx2]	induces significant scratching	activates	540	at least threefold more potent
WSGPRNRFVRF-NH2 [CNF-Vc1(7–18)]	–	can activate	–	–

From publication PMC6299835 (Toxicon : official journal of the International Society on …, 2018)
